Assay results reported in patent US20240059703A1 (AMGEN INC., priority 2021, published 2024).
Like-named read-outs stand apart in the source and are kept apart here.

Columns and labels:
[1] = test system: MIA PaCa-2 (human pancreatic carcinoma) cells; assay: Cell Viability Assay (CellTiter-Glo), MIA PaCa-2; format: cell-based
Description: Serially-diluted compound or DMSO was added to the cells, and plates were incubated at 37° C., 5% CO2 for 72 h. Cell viability was measured using a CellTiter-Glo® Luminescent Cell Viability Assay kit (Promega) according to the manufacturer's protocol. The luminescence signal of treated samples was normalized to DMSO control, and data were analyzed using a 4-parameter logistic model to calculate IC50 values.

KRAS G12C = KRAS G12C (Homo sapiens (Human), UniProt P01116, C118A/G12C); assay: 2 h coupled exchange assay; format: biochemical
KRAS G12C, sequence (P01116 other isoform, or with tags, fused parts or gaps G12C/C118A): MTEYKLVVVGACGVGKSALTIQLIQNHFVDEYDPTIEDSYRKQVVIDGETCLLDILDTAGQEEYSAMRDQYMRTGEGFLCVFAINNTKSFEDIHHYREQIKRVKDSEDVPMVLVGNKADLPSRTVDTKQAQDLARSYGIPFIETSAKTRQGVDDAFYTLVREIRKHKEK
Description: The term “2 h coupled exchange assay” or “20 h coupled exchange assay” as used herein refers to the assay described in the Section entitled “BIOLOGICAL EVALUATION.”

[2] = test system: A549 (human lung carcinoma) cells; assay: Cell Viability Assay (CellTiter-Glo), A549; format: cell-based
Method in brief: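 Luminescent ATP read-out (CellTiter-Glo) after 72 h compound treatment of cells seeded overnight at 1.67E+04 cells/mL in RPMI 1640, 10% FBS; signal relative to DMSO, IC50 by 4-parameter logistic model.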

[3] = Avg 2 h Coupled exchange IC50, 2 h compound pre-incubation, SOS-mediated nucleotide exchange
[4] = Avg 2 h Coupled exchange IC50, 2 h compound pre-incubation

Row | SMILES | IC50 ([1]; Homo sapiens, MIA PaCa-2, 72 h) | IC50 (KRAS G12C; [3]) | IC50 ([2]; Homo sapiens, A549, 72 h) | IC50 (KRAS G12C; [4]) | IC50 ([1]; 72 h) | IC50 (KRAS G12C; read-out: Avg 2 h Coupled exchange IC50, 2 h compound pre-incubation) | IC50 ([2]; 72 h)
1 | C=CC(=O)N1CC2(CCN(c3nc4c(c(-c5c(C)ccc6[nH]ncc56)c3C#N)COC3(CCC3)C4)C2)C1 [Example 13-98, 2′-(2-acryloyl-2,6-diazaspiro[3.4]octan-6-yl)-4′-(5-methyl-1H-indazol-4-yl)-5′,8′-dihydrospiro[cyclobutane-1,7′-pyrano[4,3-b]pyridine]-3′-carbonitrile] | 103 nM | 51 nM | > 5 µM |  |  |  | 
2 | C=CC(=O)N1CC2(CCN(c3nc4cc(-c5scnc5C)cnc4c(-c4ccc(F)c(O)c4)c3C#N)C2)C1 [Example 20-22, 4-(4-fluoro-3-hydroxyphenyl)-7-(4-methyl-1,3-thiazol-5-yl)-2-(2-(2-propenoyl)-2,6-diazaspiro[3.4]octan-6-yl)-1,5-naphthyridine-3-carbonitrile] | 7480 nM |  | 12.1 µM | 371 nM |  |  | 
3 | C=CC(=O)N1CC2(CCN(c3nc4c(c(-c5c(C)c(Cl)cc6[nH]ncc56)c3Cl)COC(C)(C)C4)C2)C1 (single isomer, unassigned) [Example 2-109, (P)-1-(6-(3-chloro-4-(6-chloro-5-methyl-1H-indazol-4-yl)-7,7-dimethyl-7,8-dihydro-5H-pyrano[4,3-b]pyridin-2-yl)-2,6-diazaspiro[3.4]octan-2-yl)-2-propen-1-one] | 3 nM | 23 nM | > 5 µM |  |  |  | 
4 | C=CC(=O)N1CC2(CCN(c3nc4c(c(-c5ccccc5Cl)c3C#N)COC(C)(C)C4)C2)C1 [Example 13-5, 4-(2-chlorophenyl)-7,7-dimethyl-2-(2-(2-propenoyl)-2,6-diazaspiro[3.4]octan-6-yl)-7,8-dihydro-5H-pyrano[4,3-b]pyridine-3-carbonitrile] | > 5000 nM | 973 nM | > 5 µM |  |  |  | 
5 | C=CC(=O)N1CC2(CCN(c3nc4c(c(-c5cc(OC)ccc5Cl)c3C#N)CCC(c3scnc3C)=C4)C2)C1 [Example 23-31, 4-(2-chloro-5-methoxyphenyl)-7-(4-methyl-1,3-thiazol-5-yl)-2-(2-(2-propenoyl)-2,6-diazaspiro[3.4]octan-6-yl)-5,6-dihydro-3-quinolinecarbonitrile] | 2240 nM |  | 6.72 µM | 168 nM |  |  | 
6 | C=CC(=O)N1CC2(CCN(c3nc4cc(F)ccc4c(-c4c(C)ccc5[nH]ncc45)c3C)[C@H]2C)C1 (single isomer, unassigned) [Example 2-58] | 2080 nM | 282 nM | > 5 µM |  |  |  | 
7 | C=CC(=O)N1CC2(CCN(c3nc4c(c(-c5c(C)ccc6[nH]ncc56)c3C#N)[C@@H]3CC[C@H]4C3)C2)C1 (single isomer, unassigned) [Example 14-4] | 9 nM | 17 nM | > 5 µM |  |  |  | 
8 | C=CC(=O)N1CC2(CCN(c3nc4c(c(-c5c(C)ccc6[nH]ncc56)c3C(=O)OC)CCC(C)(C)C4)C2)C1 [Example 13-44, methyl 7,7-dimethyl-4-(5-methyl-1H-indazol-4-yl)-2-(2-(2-propenoyl)-2,6-diazaspiro[3.4]octan-6-yl)-5,6,7,8-tetrahydro-3-quinolinecarboxylate] | 1440 nM | 589 nM | > 5 µM |  |  |  | 
9 | C=CC(=O)N1CC2(CCN(c3cc4c(c(-c5c(C)c(Cl)cc6cnn(C)c56)c3Cl)OCCC4)C2)C1 [Example 2-110, 1-(6-(7-chloro-8-(5-chloro-1,6-dimethyl-1H-indazol-7-yl)-3,4-dihydro-2H-chromen-6-yl)-2,6-diazaspiro[3.4]octan-2-yl)-2-propen-1-one] | 20 nM | 53 nM | > 5 µM |  |  |  | 
10 | C=CC(=O)N1CC2(CCN(c3nc4c(c(-c5cc(O)cnc5Cl)c3C#N)C[C@H]3C[C@@H]4C3(C)C)C2)C1 [Example 12-35, (1R,9R)-6-(2-chloro-5-hydroxy-3-pyridinyl)-10,10-dimethyl-4-(2-(2-propenoyl)-2,6-diazaspiro[3.4]octan-6-yl)-3-azatricyclo[7.1.1.0^2,7] undeca-2,4,6-triene-5-carbonitrile] | 1090 nM | 44 nM | > 5 µM |  |  |  | 
11 | C=CC(=O)N1CC2(CCN(c3nc4c(c(-c5cc(O)cc(Cl)c5C)c3C)COC(C)(C)C4)C2)C1 [Example 12-2, 1-(6-(4-(3-chloro-5-hydroxy-2-methylphenyl)-3,7,7-trimethyl-7,8-dihydro-5H-pyrano[4,3-b]pyridin-2-yl)-2,6-diazaspiro[3.4]octan-2-yl)prop-2-en-1-one] | 38 nM | 41 nM | > 5 µM |  |  |  | 
12 | C=CC(=O)N1CC2(CCN(c3nc4c(c(-c5ccccc5C)c3C#N)CCC(c3scnc3C)C4)C2)C1 [Example 23-2, (7R)-4-(2-methylphenyl)-7-(4-methyl-1,3-thiazol-5-yl)-2-(2-(2-propenoyl)-2,6-diazaspiro[3.4]octan-6-yl)-5,6,7,8-tetrahydro-3-quinolinecarbonitrile (7S)-4-(2-methylphenyl)-7-(4-methyl-1,3-thiazol-5-yl)-2-(2-(2-propenoyl)-2,6-diazaspiro[3.4]octan-6-yl)-5,6,7,8-tetrahydro-3-quinolinecarbonitrile] | 164 nM |  | 12.6 µM | 26 nM |  |  | 
13 | C=CC(=O)N1CC2(CCN(c3nc4ccccc4c(-c4c(C)ccc5[nH]ncc45)c3C=C)C2)C1 (atropisomer, axis not shown; (P)) [Example 26-1, (P)-1-(6-(3-ethenyl-4-(5-methyl-1H-indazol-4-yl)-2-quinolinyl)-2,6-diazaspiro[3.4]octan-2-yl)-2-propen-1-one] |  |  |  |  | 919 nM | 140 nM | > 5 µM
14 | C=CC(=O)N1CC2(CCN(c3nc4c(c(-c5ccccc5Cl)c3C#N)CCC(c3scnc3C)=C4)C2)C1 [Example 23-19, 4-(2-chlorophenyl)-7-(4-methyl-1,3-thiazol-5-yl)-2-(2-(2-propenoyl)-2,6-diazaspiro[3.4]octan-6-yl)-5,6-dihydro-3-quinolinecarbonitrile] | 537 nM |  | 3.29 µM | 87 nM |  |  | 
15 | C=CC(=O)N1CC2(CCN(c3nc4c(c(-c5cc(O)cc6ccccc56)c3C#N)CC(C)(C)C4)C2)C1 [Example 13-65, 4-(3-hydroxy-1-naphthalenyl)-6,6-dimethyl-2-(2-(2-propenoyl)-2,6-diazaspiro[3.4]octan-6-yl)-6,7-dihydro-5H-cyclopenta[b]pyridine-3-carbonitirle] | 472 nM | 74 nM | > 5 µM |  |  |  | 
16 | C=CC(=O)N1CC2(CCN(c3nc4c(c(-c5c(C)ccc6ccccc56)n3)CCCC4)C2)C1 [Example 1-12, 1-(6-(4-(2-methyl-1-naphthalenyl)-5,6,7,8-tetrahydro-2-quinazolinyl)-2,6-diazaspiro[3.4]octan-2-yl)-2-propen-1-one] | 5390 nM | 2590 nM | 7.23 µM |  |  |  | 
17 | C=CC(=O)N1CC2(CCN(c3nc4cc(-c5ccnn5C)ccc4c(-c4ccccc4Cl)c3C)C2)C1 [Example 16-1, 1-(6-(4-(2-chlorophenyl)-3-methyl-7-(1-methyl-1H-pyrazol-5-yl)quinolin-2-yl)-2,6-diazaspiro[3.4]octan-2-yl)prop-2-en-1-one] | > 5000 nM |  | > 5 µM | 280 nM |  |  | 
18 | C=CC(=O)N1CC2(CCN(c3nc4c(c(-c5ccccc5O)c3C#N)CCC(c3scnc3C)=C4)C2)C1 [Example 23-40, 4-(2-hydroxyphenyl)-7-(4-methyl-1,3-thiazol-5-yl)-2-(2-(2-propenoyl)-2,6-diazaspiro[3.4]octan-6-yl)-5,6-dihydro-3-quinolinecarbonitrile] | 2280 nM |  | 7.26 µM | 136 nM |  |  | 
19 | C=CC(=O)N1CC2(CCN(c3nc4c(c(-c5c(C)ccc6cn[nH]c56)c3C#N)COC(C)(C)C4)C2)C1 [Example 14-80, 7,7-dimethyl-4-(6-methyl-1H-indazol-7-yl)-2-(2-(2-propenoyl)-2,6-diazaspiro[3.4]octan-6-yl)-7,8-dihydro-5H-pyrano[4,3-b]pyridine-3-carbonitrile] | 1190 nM |  | > 5 µM | 89 nM |  |  | 
20 | C=CC(=O)N1CC2(CCN(c3nc4c(c(-c5c(C)c(C)cc6cnn(C)c56)c3C)COC(C)(C)C4)C2)C1 [Example 14-40, 1-(6-(3,7,7-trimethyl-4-(1,5,6-trimethyl-1H-indazol-7-yl)-7,8-dihydro-5H-pyrano[4,3-b]pyridin-2-yl)-2,6-diazaspiro[3.4]octan-2-yl)-2-propen-1-one] | 502 nM |  | > 5 µM | 110 nM |  |  | 
21 | C=CC(=O)N1CC2(CCN(c3nc4c(c(-c5cccc(OC)c5F)c3C#N)CCC(c3scnc3C)=C4)C2)C1 [Example 23-44, 4-(2-fluoro-3-methoxyphenyl)-7-(4-methyl-1,3-thiazol-5-yl)-2-(2-(2-propenoyl)-2,6-diazaspiro[3.4]octan-6-yl)-5,6-dihydro-3-quinolinecarbonitrile] | 3100 nM |  | 5.86 µM | 687 nM |  |  | 
22 | C=CC(=O)N1CC2(CCN(c3nc4c(c(-c5ccc(F)c6sc(N)nc56)c3C#N)COC(C)(C)C4)C2)C1 (single isomer, unassigned) [Example 14-57, (P)-4-(2-amino-7-fluoro-1,3-benzothiazol-4-yl)-7,7-dimethyl-2-(2-(2-propenoyl)-2,6-diazaspiro[3.4]octan-6-yl)-7,8-dihydro-5H-pyrano[4,3-b]pyridine-3-carbonitrile] | 71 nM |  | > 5 µM | 40 nM |  |  | 
